In patent publication US20250353864A1, “INDAZOLE CONTAINING MACROCYCLES AND THEIR USE” (BLOSSOMHILL THERAPEUTICS, INC., priority 2022, published 2025):

Assays:
Format in all cases: biochemical
EGFR WT = EGFR WT (Homo sapiens (Human), UniProt P00533); experiment: HotSpot radiometric kinase assay (Reaction Biology), EGFR WT; conditions: 10 μM ATP
Method in brief: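 10 μM ATP (33P-labelled, final); 120 min RT; P81 filter capture, 0.75% phosphoric acid washes. Cpd preincubated ~20 min with enzyme/substrate, 20 mM Hepes pH 7.5, 10 mM MgCl2, 1% DMSO. IC50 by curve fit.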

EGFR (D770_N771insNPG) = EGFR (D770_N771insNPG) (Homo sapiens (Human), UniProt P00533, INS770NPG); experiment: HotSpot radiometric kinase assay, EGFR (D770_N771insNPG); conditions: 10 μM ATP, read-out: EGFR (Δ770_N771insNPG) IC50
Method in brief: (§1)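 IC50 values come from curve fits of ^33P incorporation captured on P81 filters after acid washing. Kinase reactions ran 120 min at room temperature with 10 μM ATP, added about 20 min after compound. Buffer was Hepes pH 7.5 containing Mg, DTT and 1% DMSO.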

EGFR Δ746-750 mutant = EGFR Δ746-750 mutant (Homo sapiens (Human), UniProt P00533, DEL746-750); experiment: HotSpot radiometric kinase assay, EGFR Δ746-750 mutant; conditions: 10 μM ATP
Method in brief: as §1

[1] = biological target: EGFR Δ746-750/C797S mutant (Homo sapiens (Human), UniProt P00533, C797S/DEL746-750); experiment: HotSpot radiometric kinase assay, EGFR Δ746-750/C797S mutant; conditions: 10 μM ATP
Method in brief: as §1

EGFR L858R mutant = EGFR L858R mutant (Homo sapiens (Human), UniProt P00533, L858R); experiment: HotSpot radiometric kinase assay, EGFR L858R mutant; conditions: 10 μM ATP
Method in brief: as §1

EGFR L858R/T790M mutant = EGFR L858R/T790M mutant (Homo sapiens (Human), UniProt P00533, L858R/T790M); experiment: HotSpot radiometric kinase assay, EGFR L858R/T790M mutant; conditions: 10 μM ATP
Description: Biochemical Assays for Inhibition of Wild-Type and Mutant EGFRs
Briefly, specific kinase/substrate pairs along with required cofactors were prepared in reaction buffer; 20 mM Hepes pH 7.5, 10 mM […], 1 mM EGTA, 0.02% Brij35, 0.02 mg/ml BSA, 0.1 mM Na3VO4, 2 mM DTT, 1% DMSO. Compounds were delivered into the reaction, followed […] later by addition of a mixture of ATP (Sigma, St. Louis MO) and ^33P ATP (Perkin Elmer, Waltham MA) to a final concentration of 10 μM. Reactions were carried out at room temperature for 120 min, followed by spotting of the reactions onto P81 ion exchange filter paper (Whatman Inc., Piscataway, NJ). Unbound phosphate was removed by extensive washing of filters in 0.75% phosphoric acid. […] IC50 values and curve fits were obtained using Prism (GraphPad Software).

[2] = biological target: EGFR L858R/T790M/C797S mutant (Homo sapiens (Human), UniProt P00533, C797S/L858R/T790M); experiment: HotSpot radiometric kinase assay, EGFR L858R/T790M/C797S mutant; conditions: 10 μM ATP
Method in brief: as §1

Sequence of EGFR (D770_N771insNPG) (P00533 other isoform, or with tags, fused parts or gaps del 1-668/ins NPG behind 770 limits assumed): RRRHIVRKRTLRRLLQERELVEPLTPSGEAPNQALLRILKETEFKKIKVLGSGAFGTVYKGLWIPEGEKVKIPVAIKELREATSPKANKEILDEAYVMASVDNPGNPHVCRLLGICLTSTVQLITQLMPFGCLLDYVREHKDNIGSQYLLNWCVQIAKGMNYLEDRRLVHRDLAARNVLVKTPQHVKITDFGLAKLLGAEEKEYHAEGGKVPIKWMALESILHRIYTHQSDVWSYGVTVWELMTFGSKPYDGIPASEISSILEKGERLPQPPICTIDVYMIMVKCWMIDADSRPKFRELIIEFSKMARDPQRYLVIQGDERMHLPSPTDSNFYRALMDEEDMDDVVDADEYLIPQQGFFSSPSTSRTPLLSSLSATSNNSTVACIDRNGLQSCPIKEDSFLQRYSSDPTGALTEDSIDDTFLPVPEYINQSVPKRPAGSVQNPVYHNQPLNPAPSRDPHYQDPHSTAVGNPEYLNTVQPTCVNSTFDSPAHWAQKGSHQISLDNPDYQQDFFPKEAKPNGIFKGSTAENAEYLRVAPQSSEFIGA
Sequence of EGFR Δ746-750/C797S mutant (P00533 other isoform, or with tags, fused parts or gaps C797S/del 1-668/del 746-750 limits assumed): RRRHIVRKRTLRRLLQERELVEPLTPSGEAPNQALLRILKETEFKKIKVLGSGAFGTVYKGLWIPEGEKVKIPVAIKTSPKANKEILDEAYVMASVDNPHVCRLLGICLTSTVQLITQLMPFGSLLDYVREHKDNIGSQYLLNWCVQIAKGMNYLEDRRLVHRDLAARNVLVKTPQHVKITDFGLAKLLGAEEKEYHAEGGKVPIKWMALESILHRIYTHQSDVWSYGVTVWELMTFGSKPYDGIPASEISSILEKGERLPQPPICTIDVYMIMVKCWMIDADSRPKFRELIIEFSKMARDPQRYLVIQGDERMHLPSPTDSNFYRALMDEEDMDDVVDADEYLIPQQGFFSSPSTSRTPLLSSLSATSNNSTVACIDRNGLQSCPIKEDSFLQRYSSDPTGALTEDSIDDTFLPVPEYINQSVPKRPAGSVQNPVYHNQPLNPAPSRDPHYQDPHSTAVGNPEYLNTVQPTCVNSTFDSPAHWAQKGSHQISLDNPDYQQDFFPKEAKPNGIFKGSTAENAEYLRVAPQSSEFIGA
Sequence of EGFR L858R mutant (P00533 25-1210 L858R): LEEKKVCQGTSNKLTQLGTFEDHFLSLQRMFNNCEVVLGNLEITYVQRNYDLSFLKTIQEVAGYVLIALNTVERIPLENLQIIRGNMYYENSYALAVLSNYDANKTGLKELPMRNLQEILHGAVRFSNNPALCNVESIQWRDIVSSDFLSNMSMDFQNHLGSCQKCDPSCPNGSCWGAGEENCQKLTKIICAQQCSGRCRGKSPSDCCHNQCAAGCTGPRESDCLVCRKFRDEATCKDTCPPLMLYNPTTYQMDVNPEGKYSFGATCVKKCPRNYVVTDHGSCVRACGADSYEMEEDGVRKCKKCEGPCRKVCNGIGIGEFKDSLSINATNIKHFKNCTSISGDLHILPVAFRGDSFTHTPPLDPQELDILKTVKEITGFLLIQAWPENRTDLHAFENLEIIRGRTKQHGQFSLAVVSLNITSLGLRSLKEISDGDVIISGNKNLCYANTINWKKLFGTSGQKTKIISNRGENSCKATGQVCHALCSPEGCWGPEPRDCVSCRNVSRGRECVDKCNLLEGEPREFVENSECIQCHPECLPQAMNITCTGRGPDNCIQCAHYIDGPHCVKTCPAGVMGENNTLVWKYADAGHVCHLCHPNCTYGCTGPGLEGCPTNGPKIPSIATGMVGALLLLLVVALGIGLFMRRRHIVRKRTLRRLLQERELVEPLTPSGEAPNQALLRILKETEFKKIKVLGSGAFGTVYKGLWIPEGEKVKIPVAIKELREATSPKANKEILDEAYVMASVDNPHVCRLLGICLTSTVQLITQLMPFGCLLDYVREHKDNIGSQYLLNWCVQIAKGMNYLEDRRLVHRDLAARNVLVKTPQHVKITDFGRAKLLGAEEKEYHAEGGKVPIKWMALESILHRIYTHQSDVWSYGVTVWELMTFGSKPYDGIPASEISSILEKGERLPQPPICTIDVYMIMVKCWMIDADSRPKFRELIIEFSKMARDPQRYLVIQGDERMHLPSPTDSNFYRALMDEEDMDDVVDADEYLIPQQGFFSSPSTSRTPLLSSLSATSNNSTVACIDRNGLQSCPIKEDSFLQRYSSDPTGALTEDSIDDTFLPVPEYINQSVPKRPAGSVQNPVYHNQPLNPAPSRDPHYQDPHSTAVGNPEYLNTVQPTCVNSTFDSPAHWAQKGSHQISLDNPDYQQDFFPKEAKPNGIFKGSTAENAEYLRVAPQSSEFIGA
Sequence of EGFR L858R/T790M/C797S mutant (P00533 25-1210 T790M/C797S/L858R): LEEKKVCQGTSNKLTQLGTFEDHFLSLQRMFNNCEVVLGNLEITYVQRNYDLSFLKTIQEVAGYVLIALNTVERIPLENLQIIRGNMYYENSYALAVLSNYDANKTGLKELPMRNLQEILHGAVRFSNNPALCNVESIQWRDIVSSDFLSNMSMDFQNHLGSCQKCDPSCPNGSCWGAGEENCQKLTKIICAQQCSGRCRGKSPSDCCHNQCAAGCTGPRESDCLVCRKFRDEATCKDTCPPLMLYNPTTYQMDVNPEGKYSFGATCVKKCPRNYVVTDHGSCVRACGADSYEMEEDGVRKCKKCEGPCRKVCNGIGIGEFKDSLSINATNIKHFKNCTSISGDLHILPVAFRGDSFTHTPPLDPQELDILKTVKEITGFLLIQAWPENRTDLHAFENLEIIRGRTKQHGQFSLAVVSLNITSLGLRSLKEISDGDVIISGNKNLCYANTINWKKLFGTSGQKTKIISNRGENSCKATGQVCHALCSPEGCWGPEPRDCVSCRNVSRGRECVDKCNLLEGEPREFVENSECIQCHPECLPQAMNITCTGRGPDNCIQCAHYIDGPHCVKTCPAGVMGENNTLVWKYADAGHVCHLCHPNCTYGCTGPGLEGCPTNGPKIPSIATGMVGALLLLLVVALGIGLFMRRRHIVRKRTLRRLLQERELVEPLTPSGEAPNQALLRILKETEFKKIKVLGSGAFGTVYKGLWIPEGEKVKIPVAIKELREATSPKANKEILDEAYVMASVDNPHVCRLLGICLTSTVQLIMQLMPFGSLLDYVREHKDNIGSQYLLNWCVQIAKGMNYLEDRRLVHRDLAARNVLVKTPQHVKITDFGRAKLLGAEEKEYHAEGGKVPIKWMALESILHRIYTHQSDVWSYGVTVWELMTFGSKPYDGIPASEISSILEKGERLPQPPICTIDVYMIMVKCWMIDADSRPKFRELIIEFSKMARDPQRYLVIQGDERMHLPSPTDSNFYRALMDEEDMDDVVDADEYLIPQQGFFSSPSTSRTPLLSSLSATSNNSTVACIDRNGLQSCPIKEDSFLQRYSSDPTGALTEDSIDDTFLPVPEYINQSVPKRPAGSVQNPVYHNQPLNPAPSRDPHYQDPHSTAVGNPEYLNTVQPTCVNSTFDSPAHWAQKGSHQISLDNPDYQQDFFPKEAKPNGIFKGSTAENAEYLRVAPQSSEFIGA
Sequence of EGFR L858R/T790M mutant (P00533 25-1210 T790M/L858R): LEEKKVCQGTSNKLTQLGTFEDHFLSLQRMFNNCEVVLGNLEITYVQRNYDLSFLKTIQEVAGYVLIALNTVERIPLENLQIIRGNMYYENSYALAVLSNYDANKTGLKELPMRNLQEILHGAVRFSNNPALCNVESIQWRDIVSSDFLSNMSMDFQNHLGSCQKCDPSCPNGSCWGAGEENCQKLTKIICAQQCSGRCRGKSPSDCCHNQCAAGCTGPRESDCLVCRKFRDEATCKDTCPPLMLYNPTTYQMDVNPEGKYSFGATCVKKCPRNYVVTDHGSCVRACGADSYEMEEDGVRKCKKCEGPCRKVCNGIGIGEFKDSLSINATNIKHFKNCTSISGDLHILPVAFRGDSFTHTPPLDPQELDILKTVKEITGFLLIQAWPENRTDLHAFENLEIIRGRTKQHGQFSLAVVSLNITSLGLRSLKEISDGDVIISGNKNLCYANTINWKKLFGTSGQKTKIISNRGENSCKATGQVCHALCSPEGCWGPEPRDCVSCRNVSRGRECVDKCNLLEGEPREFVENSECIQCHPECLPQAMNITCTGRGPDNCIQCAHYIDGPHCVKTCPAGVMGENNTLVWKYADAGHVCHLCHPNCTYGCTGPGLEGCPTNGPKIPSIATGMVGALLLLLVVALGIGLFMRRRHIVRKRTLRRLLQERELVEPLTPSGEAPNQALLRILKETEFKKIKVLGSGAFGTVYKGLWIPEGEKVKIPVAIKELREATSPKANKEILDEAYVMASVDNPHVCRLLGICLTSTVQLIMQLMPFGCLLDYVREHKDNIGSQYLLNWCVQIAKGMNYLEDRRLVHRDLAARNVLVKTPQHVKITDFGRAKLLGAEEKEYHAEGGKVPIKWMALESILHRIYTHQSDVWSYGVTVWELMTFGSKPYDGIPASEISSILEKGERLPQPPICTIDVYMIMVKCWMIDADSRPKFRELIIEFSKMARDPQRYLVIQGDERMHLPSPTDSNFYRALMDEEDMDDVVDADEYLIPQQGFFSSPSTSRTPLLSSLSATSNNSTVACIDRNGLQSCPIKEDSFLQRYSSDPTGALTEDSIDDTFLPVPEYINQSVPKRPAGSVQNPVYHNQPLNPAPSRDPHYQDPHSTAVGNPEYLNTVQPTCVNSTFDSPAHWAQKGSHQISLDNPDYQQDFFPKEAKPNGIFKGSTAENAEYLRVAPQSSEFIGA

SMILES	IC50 (EGFR WT)	IC50 (EGFR (D770_N771insNPG))	IC50 (EGFR Δ746-750 mutant)	IC50 [1]	IC50 (EGFR L858R mutant)	IC50 (EGFR L858R/T790M mutant)	IC50 [2]
Cc1c2c(nn1CCO)OCCOC(C)c1c(cnn1C)-c1ccc3[nH]nc(c3c1)/C=C/2 (stereo not drawn) [Example 79, 2-[(17E)-8,9,16-trimethyl-8,9,11,12-tetrahydro-3,5-etheno[1,4]dioxacyclopentadecino[11,10-c:15,14-c′:6,7-c″ ]tripyrazol-15(2H)-yl]ethan-1-ol]	1910 nM	951 nM	596 nM	284 nM	526 nM	57.1 nM	67.7 nM
COC(C)(C)c1ccc2c(c1)O[C@@H]1CCN(CCOc3c(cnn3C)-c3ccc4[nH]nc(c4c3)/C=C/2)C1=O [Example 115, (10R,16E)-13-(2-methoxypropan-2-yl)-3-methyl-3,5,6,9,10,19-hexahydro-8H-20,22-etheno-7,10-methanodipyrazolo[3,4-i:4′,3′-m][1,8,5]benzodioxazacyclooctadecin-25-one]	147 nM	32.3 nM	12.9 nM	60.1 nM	37.3 nM	1.6 nM	14 nM
Cn1ncc2c1COCCOc1ccccc1/C=C/c1n[nH]c3ccc-2cc13 [Ex. 1, (11E)-1-methyl-1,18,19,21-tetrahydro-8H-10,7,4-(ethan[1]yl[1,2]diylidene)pyrazolo[3,4-f][1,4,12,13]benzodioxadiazacyclooctadecine]	> 1000 nM	> 1000 nM	68.4 nM	177 nM	848 nM	251 nM	259 nM
C[C@H]1CN(C)Cc2c(c(OC3CCN(S(C)(=O)=O)CC3)nn2CCO)/C=C/c2n[nH]c3ccc(cc23)-c2cnn(C)c2O1 [Example 175, 2-[(10S,17E)-16-{[1-(methanesulfonyl)piperidin-4-yl]oxy}-8,10,12-trimethyl-2,8,10,11,12,13-hexahydro-14H-3,5-ethenotripyrazolo[3,4-f:3′,4′-j:4″,3″- n][1,4]oxazacyclopentadecin-14-yl]ethan-1-ol]	176 nM	713 nM	67.8 nM	8.97 nM	42.6 nM	2.06 nM	3.39 nM
Cc1nn([C@H]2CC[C@@H]2O)c2c1/C=C/c1n[nH]c3ccc(cc13)-c1cnn(C)c1OCCCO2 (racemic) [Example 78, (rac)-2-[(17E)-8,16-dimethyl-2,8,11,12-tetrahydro-10H,14H-3,5-etheno[1,5]dioxacyclopentadecino[10,11-c:15,14-c′:6,7-c″ ]tripyrazol-14-yl]cyclobutan-1-ol]	> 1000 nM	910 nM	212 nM	775 nM	688 nM	206 nM	296 nM
Cc1nn([C@H]2CN(C)C[C@@H]2O)c2c1/C=C/c1n[nH]c3ccc(cc13)-c1cnn(C)c1OCCCO2 (racemic) [Example 75, (rac)-4-[(17E)-8,16-dimethyl-2,8,11,12-tetrahydro-10H,14H-3,5-etheno[1,5]dioxacyclopentadecino[10,11-c:15,14-c′:6,7-c″]tripyrazol-14-yl]-1-methylpyrrolidin-3-ol]	295 nM	84.3 nM	59.7 nM	28.5 nM	55.9 nM	17.5 nM	21.2 nM
Cc1nn(C)c2c1/C=C/c1n[nH]c3ccc(cc13)-c1cnn(C)c1CN(C)C[C@@H](C)O2 (single isomer, unassigned) [Example 96]	242 nM	196 nM	285 nM	94.1 nM	74.9 nM	5.29 nM	9.45 nM

Stronger by IC50 (EGFR WT), values ahead:

IC50 (EGFR WT)	IC50 (EGFR (D770_N771insNPG))	IC50 (EGFR Δ746-750 mutant)	IC50 [1]	IC50 (EGFR L858R mutant)	IC50 (EGFR L858R/T790M mutant)	IC50 [2]	SMILES
103 nM	334 nM	15.2 nM	12.1 nM	14.6 nM	0.8 nM	1.54 nM	C[C@H]1CN(C)Cc2c(c(OC3CCNCC3)nn2C)/C=C/c2n[nH]c3ccc(cc23)-c2cnn(C)c2O1 [Example 136, (10S,17E)-8,10,12,14-tetramethyl-16-[(piperidin-4-yl)oxy]-2,10,11,12,13,14-hexahydro-8H-3,5-ethenotripyrazolo[3,4-f:3′,4′-j:4″,3″-n][1,4]oxazacyclopentadecine]
17.1 nM	81.8 nM	11.6 nM	4.65 nM	1.02 nM	0.06 nM	0.81 nM	Cc1c2c(nn1CCN1CCN(C)CC1)CN(C)C[C@H](C)Oc1c(cnn1C)-c1ccc3[nH]nc(c3c1)/C=C/2 [Example 90, (10S,17E)-8,10,12,16-tetramethyl-15-[2-(4-methylpiperazin-1-yl)ethyl]-2,10,11,12,13,15-hexahydro-8H-3,5-ethenotripyrazolo[3,4-f:3′,4′-j:4″,3″-n][1,4]oxazacyclopentadecine]
0.54 nM	1.62 nM	0.12 nM	0.35 nM	0.09 nM	0.07 nM	0.24 nM	CCN1Cc2c(c(C)nn2CCO)/C=C/c2n[nH]c3ccc(cc23)-c2cnn(C)c2O[C@@H](C)C1 [Example 133, v2-[(10S,17E)-12-ethyl-8,10,16-trimethyl-2,8,10,11,12,13-hexahydro-14H-3,5-ethenotripyrazolo[3,4-f:3′,4′-j:4″,3″-n][1,4]oxazacyclopentadecin-14-yl]ethan-1-ol]
62.4 nM	94.5 nM	48.1 nM	44.7 nM	25.4 nM	4.1 nM	13.1 nM	Cc1c2c(nn1[C@H]1C[C@@H](N(C)CCN(C)C)C1)OCCCOc1c(cnn1C)-c1ccc3[nH]nc(c3c1)/C=C/2 [Example 102, N^1—{(1s,3s)-3-[(17E)-8,16-dimethyl-2,8,11,12-tetrahydro-10H,15H-3,5-etheno[1,5]dioxacyclopentadecino[10,11-c:15,14-c′:6,7-c′]tripyrazol-15-yl]cyclobutyl}-N^1,N—,N^2-trimethylethane-1,2-diamine]
44.1 nM	17.2 nM	17.6 nM	14.1 nM	9.99 nM	0.82 nM	5.75 nM	CN(C)Cc1ccc2c(c1)O[C@@H]1CCN(CCOc3c(cnn3C)-c3ccc4[nH]nc(c4c3)/C=C/2)C1=O [Example 94, (10R,16E)-13-[(dimethylamino)methyl]-3-methyl-3,5,6,9,10,19-hexahydro-8H-20,22-etheno-7,10-methanodipyrazolo[3,4-i:4′,3′-m][1,8,5]benzodioxazacyclooctadecin-25-one]
11.1 nM	25.6 nM	2.82 nM	0.85 nM	1.81 nM	0.15 nM	0.43 nM	Cc1nn(C[C@@H](C)O)c2c1/C=C/c1n[nH]c3ccc(cc13)-c1cnn(C)c1O[C@@H](C)CN(C)C2 [Example 127, (2R)-1-[(10S,17E)-8,10,12,16-tetramethyl-2,8,10,11,12,13-hexahydro-14H-3,5-ethenotripyrazolo[3,4-f:3′,4′-j:4″,3″-n][1,4]oxazacyclopentadecin-14-yl]propan-2-ol]
101 nM	103 nM	30.9 nM	49.2 nM	26.2 nM	3.86 nM	11.9 nM	Cc1nn([C@H]2C[C@@H](NCCN(C)C)C2)c2c1/C=C/c1n[nH]c3ccc(cc13)-c1cnn(C)c1OCCCO2 [Example 108, N^2-{(1s,3s)-3-[(17E)-8,16-dimethyl-2,8,11,12-tetrahydro-10H,14H-3,5-etheno[1,5]dioxacyclopentadecino[10,11-c:15,14-c′:6,7-c″]tripyrazol-14-yl]cyclobutyl}-N^1,N^1-dimethylethane-1,2-diamine]
58.3 nM	137 nM	5.17 nM	1.42 nM	16.3 nM	1 nM	1.13 nM	CCOc1nn(CCO)c2c1/C=C/c1n[nH]c3ccc(cc13)-c1c(C)nn(C)c1OC[C@H](C)N(C1CC1)C2 [Example 205, 2-[(11S,17E)-12-cyclopropyl-16-ethoxy-6,8,11-trimethyl-2,8,10,11,12,13-hexahydro-14H-3,5-ethenotripyrazolo[3,4-f:3′,4′-j:4″,3″- n][1,4]oxazacyclopentadecin-14-yl]ethan-1-ol]
